Test results published in US20250129070A1, “BIFUNCTIONAL ANDROGEN RECEPTOR COMPOUNDS” (priority 2023, published 2025).

What was measured:
[1] = test system: AR / CBP ternary complex; assay: Ternary complex formation assay (sandwich ELISA, AR capture / CBP detection) in VCaP cell lysates; type: cell-based; conditions: 1.5 hours treatment, sandwich ELISA (AR capture, CBP or p300 detection)
In short: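 Anti-AR (AR 441)-coated plates capture AR from lysates of VCaP cells grown ≥3 days at 50K/well in 5% charcoal-stripped FBS, dosed with bifunctional for 1.5 h and lysed 30 min at 4 °C. Co-captured CBP/p300 is probed with rabbit mAb and HRP anti-rabbit, then QuantaRed fluorescence (570/585) is read at 0, 5 and 15 min.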

[2] = test system: VCaP cells; assay: VCaP growth inhibition assay; type: cell-based; conditions: 30 pM R1881, 9 days, CTG
In short: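 Growth read by CTG luminescence after 9-day exposure to compound (final 100 nM–10 fM, 1:5 steps) plus 30 pM R1881, in phenol red-free DMEM with 5% CSS. Cells pre-incubated 72 h before dosing; IC50 by nonlinear 4-parameter regression.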

Compound	EC50 [1] [nM]	IC50 [2] [nM]
COc1cc(OC2C(C)(C)C(NC(=O)c3ccc(C#CC4CCC(N5CCC(n6nc(N7CCCc8cc(-c9cnn(C)c9)c(C(F)F)cc87)c7c6CCN(C(C)=O)C7)CC5)CC4)cc3)C2(C)C)ccc1C#N (stereo not drawn) [Compound 292, 4-[2-[4-[4-[5-acetyl-3-[7-(difluoromethyl)-6-(1-methylpyrazol-4-yl)-3,4-dihydro-2H-quinolin-1-yl]-6,7-dihydro-4H-pyrazolo[4,3-c]pyridin-1-yl]-1-piperidyl]cyclohexyl]ethynyl]-N-[3-(4-cyano-3-methoxy-phenoxy)-2,2,4,4-tetramethyl-cyclobutyl]benzamide]	< 1	0.1 to 1
COc1cc(OC2C(C)(C)C(NC(=O)c3ccc(OC4CC5(C4)CC(N4CCC(n6nc(N7CCCc8cc(-c9cnn(C)c9)c(C(F)F)cc87)c7c6CCN(C(C)=O)C7)CC4)C5)cc3)C2(C)C)ccc1C#N (stereo not drawn) [Compound 386, 4-[6-[4-[5-acetyl-3-[7-(difluoromethyl)-6-(1-methylpyrazol-4-yl)-3,4-dihydro-2H-quinolin-1-yl]-6,7-dihydro-4H-pyrazolo[4,3-c]pyridin-1-yl]-1-piperidyl]spiro[3.3]heptan-2-yl]oxy-N-[3-(4-cyano-3-methoxy-phenoxy)-2,2,4,4-tetramethyl-cyclobutyl]benzamide]	< 1	0.1 to 1
COc1cc(OC2C(C)(C)C(NC(=O)c3ccc(N4CC[C@H](N5CCC(n6nc(N7CCCc8cc(-c9cnn(C)c9)c(C(F)F)cc87)c7c6CCN(C(C)=O)C7)CC5)C4)cc3)C2(C)C)ccc1C#N (stereo partly drawn) [Compound 336, 4-[(3S)-3-[4-[5-acetyl-3-[7-(difluoromethyl)-6-(1-methylpyrazol-4-yl)-3,4-dihydro-2H-quinolin-1-yl]-6,7-dihydro-4H-pyrazolo[4,3-c]pyridin-1-yl]-1-piperidyl]pyrrolidin-1-yl]-N-[3-(4-cyano-3-methoxy-phenoxy)-2,2,4,4-tetramethyl-cyclobutyl]benzamide]	< 1	1 to 100
CC(=O)N1CCc2c(c(N3CCCc4cc(-c5cnn(C)c5)c(C)cc43)nn2C2CCN(C(=O)C3CCN(c4ncc(C(=O)NC5C(C)(C)C(Oc6ccc(C#N)c(Cl)c6)C5(C)C)cn4)CC3)CC2)C1 (stereo not drawn) [Compound 120, 2-[4-[4-[5-acetyl-3-[7-methyl-6-(1-methylpyrazol-4-yl)-3,4-dihydro-2H-quinolin-1-yl]-6,7-dihydro-4H-pyrazolo[4,3-c]pyridin-1-yl]piperidine-1-carbonyl]-1-piperidyl]-N-[3-(3-chloro-4-cyano-phenoxy)-2,2,4,4-tetramethyl-cyclobutyl]pyrimidine-5-carboxamide]	< 1	≤ 0.1
CC(=O)N1CCc2c(c(N3CCCc4cc(-c5cnn(C)c5)c(C(F)F)cc43)nn2C2CCN(CC3C(C)CN(c4ncc(C(=O)NC5C(C)(C)C(Oc6ccc(C#N)c(C)c6C)C5(C)C)cn4)CC3C)CC2)C1 (stereo not drawn) [Compound 461, 2-[4-[[4-[5-acetyl-3-[7-(difluoromethyl)-6-(1-methylpyrazol-4-yl)-3,4-dihydro-2H-quinolin-1-yl]-6,7-dihydro-4H-pyrazolo[4,3-c]pyridin-1-yl]-1-piperidyl]methyl]-3,5-dimethyl-1-piperidyl]-N-[3-(4-cyano-2,3-dimethyl-phenoxy)-2,2,4,4-tetramethyl-cyclobutyl]pyrimidine-5-carboxamide]	< 1	≤ 0.1
CC(=O)N1CCc2c(c(N3CCc4cc(-c5cnn(C)c5)c(C(F)F)cc43)nn2C2CCN(CC3CCN(c4ncc(C(=O)NC5C(C)(C)C(Oc6ccc(C#N)c(Cl)c6)C5(C)C)cn4)CC3)CC2)C1 (stereo not drawn) [Compound 13, 2-[4-[[4-[5-acetyl-3-[6-(difluoromethyl)-5-(1-methylpyrazol-4-yl)indolin-1-yl]-6,7-dihydro-4H-pyrazolo[4,3-c]pyridin-1-yl]-1-piperidyl]methyl]-1-piperidyl]-N-[3-(3-chloro-4-cyano-phenoxy)-2,2,4,4-tetramethyl-cyclobutyl]pyrimidine-5-carboxamide]	1 to 10	0.1 to 1
CC(=O)N1CCc2c(c(N3CCCc4cc(-c5cnn(C)c5)c(C(F)F)cc43)nn2CCCOC2CCN(c3ncc(C(=O)NC4C(C)(C)C(Oc5ccc(C#N)c(Cl)c5)C4(C)C)cn3)CC2)C1 (stereo not drawn) [Compound 9, 2-[4-[3-[5-acetyl-3-[7-(difluoromethyl)-6-(1-methylpyrazol-4-yl)-3,4-dihydro-2H-quinolin-1-yl]-6,7-dihydro-4H-pyrazolo[4,3-c]pyridin-1-yl]propoxy]-1-piperidyl]-N-[3-(3-chloro-4-cyano-phenoxy)-2,2,4,4-tetramethyl-cyclobutyl]pyrimidine-5-carboxamide]	< 1	0.1 to 1
COc1cc(OC2C(C)(C)C(NC(=O)c3ccc(N4CCC(N5CCC6(CC5)CC(n5nc(N7CCCc8cc(-c9cnn(C)c9)c(C(F)F)cc87)c7c5CCN(C(C)=O)C7)C6)CC4)cc3)C2(C)C)ccc1C#N (stereo not drawn) [Compound 374, 4-[4-[2-[5-acetyl-3-[7-(difluoromethyl)-6-(1-methylpyrazol-4-yl)-3,4-dihydro-2H-quinolin-1-yl]-6,7-dihydro-4H-pyrazolo[4,3-c]pyridin-1-yl]-7-azaspiro[3.5]nonan-7-yl]-1-piperidyl]-N-[3-(4-cyano-3-methoxy-phenoxy)-2,2,4,4-tetramethyl-cyclobutyl]benzamide]	< 1	0.1 to 1
COc1cc(OC2C(C)(C)C(NC(=O)c3ccc(N4CCN(CCc5ccc(-c6cc7cccc(-c8nn(C9CCOCC9)c9c8CN(C(C)=O)CC9)c7cn6)cn5)CC4)cc3)C2(C)C)ccc1C#N (stereo not drawn) [Compound 250, 4-[4-[2-[5-[8-(5-acetyl-1-tetrahydropyran-4-yl-6,7-dihydro-4H-pyrazolo[4,3-c]pyridin-3-yl)-3-isoquinolyl]-2-pyridyl]ethyl]piperazin-1-yl]-N-[3-(4-cyano-3-methoxy-phenoxy)-2,2,4,4-tetramethyl-cyclobutyl]benzamide]	< 1	≤ 0.1
CC(=O)N1CCc2c(c(N3CCCc4cc(-c5cnn(C)c5)c(C(F)F)cc43)nn2C2CCN(Cc3cn(CCc4ncc(C(=O)NC5C(C)(C)C(Oc6ccc(C#N)c(Cl)c6)C5(C)C)cn4)nn3)CC2)C1 (stereo not drawn) [Compound 15, 2-[2-[4-[[4-[5-acetyl-3-[7-(difluoromethyl)-6-(1-methylpyrazol-4-yl)-3,4-dihydro-2H-quinolin-1-yl]-6,7-dihydro-4H-pyrazolo[4,3-c]pyridin-1-yl]-1-piperidyl]methyl]triazol-1-yl]ethyl]-N-[3-(3-chloro-4-cyano-phenoxy)-2,2,4,4-tetramethyl-cyclobutyl]pyrimidine-5-carboxamide]	10 to 100	> 100
CN1C(=O)CCc2cc(N3CCCc4cc(-c5ccc(CCC6CCN(c7ncc(C(=O)NC8C(C)(C)C(Oc9ccc(C#N)c(Cl)c9)C8(C)C)cn7)CC6)nc5)ncc43)ccc21 (stereo not drawn) [Compound 240, N-[3-(3-chloro-4-cyano-phenoxy)-2,2,4,4-tetramethyl-cyclobutyl]-2-[4-[2-[5-[1-(1-methyl-2-oxo-3,4-dihydroquinolin-6-yl)-3,4-dihydro-2H-1,7-naphthyridin-6-yl]-2-pyridyl]ethyl]-1-piperidyl]pyrimidine-5-carboxamide]	1 to 10	1 to 100
CC(=O)N1CCc2c(c(N3CCCc4cc(-c5cnn(C)c5)c(C(F)F)cc43)nn2C2CCN(c3ncc(C(=O)NC4C(C)(C)C(Oc5ccc(C#N)c(Cl)c5)C4(C)C)cn3)CC2)C1 (stereo not drawn) [Compound 95, 2-[4-[5-acetyl-3-[7-(difluoromethyl)-6-(1-methylpyrazol-4-yl)-3,4-dihydro-2H-quinolin-1-yl]-6,7-dihydro-4H-pyrazolo[4,3-c]pyridin-1-yl]-1-piperidyl]-N-[3-(3-chloro-4-cyano-phenoxy)-2,2,4,4-tetramethyl-cyclobutyl]pyrimidine-5-carboxamide]	1 to 10	0.1 to 1
COc1cc(OC2C(C)(C)C(NC(=O)c3ccc(N4CCC5(CCC(n6nc(N7CCCc8cc(-c9cnn(C)c9)c(C(F)F)cc87)c7c6CCN(C(C)=O)C7)CC5)C4)cc3)C2(C)C)ccc1C#N (stereo not drawn) [Compound 406, 4-[8-[5-acetyl-3-[7-(difluoromethyl)-6-(1-methylpyrazol-4-yl)-3,4-dihydro-2H-quinolin-1-yl]-6,7-dihydro-4H-pyrazolo[4,3-c]pyridin-1-yl]-2-azaspiro[4.5]decan-2-yl]-N-[3-(4-cyano-3-methoxy-phenoxy)-2,2,4,4-tetramethyl-cyclobutyl]benzamide]	1 to 10	1 to 100
COc1cc(OC2C(C)(C)C(NC(=O)c3ccc(N4CCC(CN5CCC(n6nc(N7CCCc8cc(-c9cnn(C)c9)c(C(F)F)cc87)c7c6CCN(C(C)=O)C7)CC5)CC4)cc3)C2(C)C)ccc1C#N (stereo not drawn) [Compound 185, 4-[4-[[4-[5-acetyl-3-[7-(difluoromethyl)-6-(1-methylpyrazol-4-yl)-3,4-dihydro-2H-quinolin-1-yl]-6,7-dihydro-4H-pyrazolo[4,3-c]pyridin-1-yl]-1-piperidyl]methyl]-1-piperidyl]-N-[3-(4-cyano-3-methoxy-phenoxy)-2,2,4,4-tetramethyl-cyclobutyl]benzamide]	< 1	≤ 0.1
CC(=O)N1CCc2c(c(N3CCCc4cc(-c5cnn(C)c5)c(C(F)F)cc43)nn2CC2CCN(c3ncc(C(=O)NC4C(C)(C)C(Oc5ccc(C#N)c(Cl)c5)C4(C)C)cn3)CC2)C1 (stereo not drawn) [Compound 53, 2-[4-[[5-acetyl-3-[7-(difluoromethyl)-6-(1-methylpyrazol-4-yl)-3,4-dihydro-2H-quinolin-1-yl]-6,7-dihydro-4H-pyrazolo[4,3-c]pyridin-1-yl]methyl]-1-piperidyl]-N-[3-(3-chloro-4-cyano-phenoxy)-2,2,4,4-tetramethyl-cyclobutyl]pyrimidine-5-carboxamide]	< 1	> 100
